Among the data in PubChem BioAssay (NCI) are TGI values, retold here.

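Where inhibition never reached the appropriate level, the endpoint shown equals the highest concentration tested. Otherwise, values were interpolated linearly from a five-concentration, 48-hour dose response in 96-well plates. Definition used: TGI = concentration required for complete inhibition of growth.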 Where only a bound is given, the exact number is not on record here.

Holding throughout (experiment): NCI tumour cell line growth inhibition, 48 h
The subject of assay [1] is SN12C renal.
In assay [2] the test system is RPMI-8226 leukemia.
For assay [3], the system named is HOP-92 NSCLC.
Assay [4] concerns HT29 colon.
The test system of assay [5] is LOX IMVI melanoma.
Assay [6] deals with NCI-H226 lung.
The subject of assay [7] is U251 CNS.
Assay [8] has as its system NCI-H460 lung.
Assay [9] concerns SNB-75 CNS.
The test system of assay [10] is MCF7 breast.
For assay [11], the system named is OVCAR-5 ovarian.
Assay [12] concerns HL-60(TB) leukemia.
In assay [13] the test system is A549 NSCLC.
Assay [14] deals with SF-268 CNS.
Assay [15] deals with OVCAR-4 ovarian.
Assay [16] deals with KM12 colon.
The subject of assay [17] is SK-MEL-28 melanoma.
For assay [18], the system named is UACC-257 melanoma.
Assay [19] concerns HCT-116 colon.
The subject of assay [20] is MALME-3M melanoma.

For `O=C1CCCC2=C1CC1=C(CCCC1=O)N2c1ccccc1C(=O)O`, the TGI in assay [1], in assay [2], in assay [3], in assay [4], in [5] and in assay [6] was greater than 100 µM each time. The TGI in [7], in [8], in assay [9], in assay [10], in assay [11] and in assay [12] was greater than 100 µM in each case. Moreover, the TGI in assay [13], in assay [14], in assay [15], in [16] and in assay [17] was greater than 100 µM throughout.

`CC1=C(C#N)C23C(=O)c4ccccc4C(O)=C2C(=O)C=CC3(O)N1` (centres undefined): the TGI in assay [1] was found to be 6.19 µM; in assay [3] it was 6.38 µM; in [4] it was 5.02 µM; in assay [5], 18.9 µM; in assay [6], 32 µM; in assay [18], 4.56 µM. Also, the TGI in assay [7] is greater than 100 µM; in assay [8], 31.1 µM; in [19], greater than 100 µM; in assay [9] it was 4.56 µM; in assay [10], 4.59 µM; in [11], 36.3 µM. Also, the TGI is 15.2 µM in assay [12]; greater than 100 µM in assay [13]; 26.2 µM in assay [14]; 4.16 µM in [15]; 38.6 µM in assay [16]; 5.23 µM in [17]. The TGI in assay [20] worked out at 3.86 µM.

For `CCN1C(=S)n2cccc2C1CC(=O)c1ccc(Cl)cc1` (centres undefined), the TGI in assay [1], in assay [2], in assay [3], in assay [4], in assay [5] and in assay [18] was greater than 100 µM each time. For the same compound, the TGI in assay [7], in [8], in assay [19], in assay [9], in assay [10] and in assay [11] was greater than 100 µM each time. Further, the TGI in assay [12], in [13], in [14], in [15], in [16] and in assay [17] was greater than 100 µM in each case. This compound also returned a TGI in [20] greater than 100 µM.

For `C=CCOc1ccc(/C(N=Nc2ccc(C)cc2)=N/NC(=O)c2ccccc2)cc1OC`, the TGI in assay [1] was greater than 100 µM; in assay [3] it was 41.8 µM; in assay [4], greater than 100 µM; in assay [5], 41.5 µM; in [6], 58.4 µM; in [18], 49.1 µM. In addition, the TGI in assay [7] is greater than 100 µM; in [8], 48 µM; in [19], 82.6 µM; in assay [9], 65.6 µM; in assay [10] it was 83.6 µM; in assay [11] it was greater than 100 µM. The TGI in assay [12] is 29 µM; in assay [13], 64.9 µM; in assay [14], greater than 100 µM; in assay [15], greater than 100 µM; in [16] it was 48.7 µM; in [17], 51.3 µM. The compound further yielded a TGI in assay [20] of 76.9 µM.

As for `O=C(NCCc1ccccc1)[C@H]1CCCC[C@@H]1CCO`, the TGI in assay [1], in assay [2], in assay [3], in assay [4], in assay [5] and in assay [6] was greater than 100 µM in each case. The TGI in assay [18], in assay [7], in assay [8], in [19], in assay [9] and in assay [10] was greater than 100 µM each time. Also, the TGI in [11], in [12], in assay [13], in assay [14], in [15] and in [16] was greater than 100 µM each time. In addition, the TGI in [17] was greater than 100 µM.

In the case of `CC(=O)OCC1OC(n2c(C#N)cc(=O)[nH]c2=O)CC1OC(C)=O` (centres undefined), the TGI in [1], in [3], in assay [4], in [5], in assay [6] and in [18] was greater than 100 µM each time. The TGI in assay [7], in assay [8], in [19], in assay [9], in [10] and in [11] was greater than 100 µM in each case. Besides, the TGI in assay [12], in [13], in assay [14], in assay [15], in assay [16] and in assay [17] was greater than 100 µM throughout. In assay [20], this compound displayed a TGI greater than 100 µM.

Regarding `COc1ccc(N=Nc2c(C)c(C#N)c(=S)n(C3OC(COC(C)=O)C(OC(C)=O)C(OC(C)=O)C3OC(C)=O)c2C)cc1` (centres undefined), the TGI in [1] was greater than 100 µM; in [2], greater than 100 µM; in assay [3], 63.5 µM; in assay [4], greater than 100 µM; in [5], greater than 100 µM; in assay [18] it was greater than 100 µM. Also, the TGI in assay [8] is greater than 100 µM; in assay [19], greater than 100 µM; in [9], 42.6 µM; in assay [10] it was greater than 100 µM; in assay [11], greater than 100 µM; in [12] it was greater than 100 µM. Besides, the TGI in [13], in assay [14], in assay [15], in assay [16], in assay [17] and in assay [20] was greater than 100 µM in each case.

As for `Cn1c2c(c3ccccc31)CCN1OCC=C[C@@H](C(=O)O)[C@@H]21`, the TGI in assay [1], in assay [3], in assay [4], in assay [5], in [6] and in assay [18] was greater than 100 µM throughout. The TGI in assay [7], in [8], in assay [19], in assay [9], in assay [10] and in assay [11] was greater than 100 µM each time. Besides, the TGI in assay [12], in [13], in assay [14], in [15], in [16] and in [17] was greater than 100 µM throughout. Moreover, the TGI in [20] is greater than 100 µM.

With `O=C1C=CC(=O)c2c1cc([N+](=O)[O-])c1ccoc21`, the TGI was 38.1 µM in assay [1]; greater than 100 µM in assay [2]; 5 µM in assay [3]; 76.7 µM in assay [4]; greater than 44.5 µM in [5]; greater than 62.7 µM in assay [6]. Further, the TGI in assay [18] was 32.4 µM; in [7] it was 37.2 µM; in assay [8], 35.2 µM; in assay [19], 12.5 µM; in [9], greater than 59.5 µM; in assay [10], 44.3 µM. Further, the TGI is 35.4 µM in [11]; 8.72 µM in [12]; 40.9 µM in assay [13]; greater than 65.1 µM in [14]; 38.6 µM in assay [15]; 31.9 µM in [16]. Besides, the TGI in assay [17] stood at 60 µM.

As for `O=C(NO)c1ccc(OCc2cccc(Cl)c2)cc1`, the TGI is 55.9 µM in assay [1]; greater than 58.9 µM in assay [2]; 51.4 µM in [3]; 25.6 µM in assay [4]; greater than 56.6 µM in [5]; 36 µM in assay [6]. Also, the TGI in assay [18] was 46.8 µM; in assay [7] it was greater than 60.5 µM; in assay [8], 26 µM; in [19] it was 14.4 µM; in assay [9], greater than 70.2 µM; in assay [10] it was greater than 100 µM. For the same compound, the TGI in [11] was greater than 40.8 µM; in [12], 20.8 µM; in assay [13], greater than 63.8 µM; in [14] it was 38.2 µM; in assay [15], greater than 58 µM; in [16], 29.9 µM. The TGI in [17] was 65.1 µM.

Regarding `COc1ccc2c(c1)CCN=C2Cc1ccccc1CCCl`, the TGI in assay [1] is 72.5 µM; in assay [2] it was 46.7 µM; in assay [3], greater than 100 µM; in assay [4], 55 µM; in [6] it was 83.5 µM; in [18] it was 88.9 µM. The TGI in assay [7] was greater than 100 µM; in assay [8], 38.8 µM; in [19] it was greater than 100 µM; in assay [9], greater than 100 µM; in assay [10] it was greater than 100 µM; in assay [11], greater than 100 µM. The TGI in assay [12] is 48.6 µM; in [13] it was greater than 100 µM; in assay [14] it was greater than 100 µM; in [15] it was greater than 100 µM; in assay [16] it was 74.6 µM; in assay [17], greater than 100 µM.

Regarding `CC1C(=NO)C(C)C(c2ccccc2)N(N=O)C1c1ccccc1` (centres undefined), the TGI amounted to 28.8 µM in assay [1]; 49.3 µM in [3]; 33.8 µM in assay [4]; 29.3 µM in assay [5]; 55.2 µM in assay [6]; 54.8 µM in assay [18]. Moreover, the TGI in [7] was 35.4 µM; in assay [8], 32.1 µM; in [19], 33.3 µM; in assay [9] it was 82 µM; in [10], greater than 100 µM; in assay [12], 88.6 µM. Also, the TGI in assay [13] worked out at 40.7 µM; in assay [14], 35.7 µM; in assay [15], 54.4 µM; in assay [16], 29.8 µM; in assay [17], 32.3 µM; in assay [20], 34.6 µM.

On to `CCN1CCN(c2nc3ccccc3nc2C(=O)c2ccc(OC)cc2)CC1`, for which the TGI in assay [2] is 43.7 µM; in assay [3], greater than 100 µM; in assay [4], greater than 100 µM; in [5] it was greater than 100 µM; in [18] it was 35.3 µM; in assay [7], greater than 100 µM. The TGI in assay [8] is greater than 100 µM; in assay [19], 36.7 µM; in [9], greater than 100 µM; in [10] it was 58.8 µM; in [11] it was greater than 100 µM; in assay [12] it was greater than 100 µM. In addition, the TGI was greater than 100 µM in assay [13]; greater than 100 µM in assay [14]; greater than 100 µM in assay [15]; greater than 100 µM in [16]; greater than 100 µM in assay [17]; 62.2 µM in [20].

Take `NC(=O)NC(=O)CCC(NS(=O)(=O)c1ccccc1)C(=O)NC(N)=O` (centres undefined): the TGI in assay [1], in assay [3], in assay [4], in assay [5], in [6] and in assay [18] was greater than 100 µM each time. Moreover, the TGI in assay [7], in assay [8], in [19], in assay [9], in assay [10] and in assay [11] was greater than 100 µM each time. Further, the TGI in assay [12], in assay [13], in assay [14], in assay [15], in assay [16] and in assay [17] was greater than 100 µM throughout. For the same compound, in assay [20], the TGI is greater than 100 µM.

On to `O=Nc1c(-c2c(O)[nH]c3ccccc23)[nH]c2ccccc12`, for which the TGI in [1] was 13.3 µM; in assay [2], 9.95 µM; in assay [3], greater than 29.6 µM; in assay [4], greater than 57.8 µM; in [5], 41.4 µM; in assay [18] it was greater than 72.3 µM. Besides, the TGI in [7] was greater than 65.4 µM; in assay [8], 28.7 µM; in assay [19], greater than 29.6 µM; in assay [9], 16.5 µM; in [10], greater than 23.9 µM; in [11], greater than 86.4 µM. For the same compound, the TGI was 12.3 µM in [12]; greater than 55.1 µM in [13]; greater than 74.1 µM in assay [14]; 34.1 µM in assay [15]; greater than 38.7 µM in assay [16]; 27.7 µM in assay [17]. The compound also displayed a TGI in assay [20] of 27.8 µM.
